Data on four molecules can be found in patent publication US20190010167A1, “INHIBITORS OF THE MENIN-MLL INTERACTION” (Vitae Pharmaceuticals, Inc., priority 2015, published 2019).

Assay [1] has as its target T1, mutated menin / MLL-AF9 fusion protein (Homo sapiens, UniProt O00255).
T1 construct: biotinylated (1) wild-type menin or (2) mutated menin (described in Nature (2012) Vol. 482, pp. 542-548); fused on or other part: Biotin attached chemically with Sulfo-NHS-Biotin; This is a label, not a fusion
T1 sequence (O00255 1-610): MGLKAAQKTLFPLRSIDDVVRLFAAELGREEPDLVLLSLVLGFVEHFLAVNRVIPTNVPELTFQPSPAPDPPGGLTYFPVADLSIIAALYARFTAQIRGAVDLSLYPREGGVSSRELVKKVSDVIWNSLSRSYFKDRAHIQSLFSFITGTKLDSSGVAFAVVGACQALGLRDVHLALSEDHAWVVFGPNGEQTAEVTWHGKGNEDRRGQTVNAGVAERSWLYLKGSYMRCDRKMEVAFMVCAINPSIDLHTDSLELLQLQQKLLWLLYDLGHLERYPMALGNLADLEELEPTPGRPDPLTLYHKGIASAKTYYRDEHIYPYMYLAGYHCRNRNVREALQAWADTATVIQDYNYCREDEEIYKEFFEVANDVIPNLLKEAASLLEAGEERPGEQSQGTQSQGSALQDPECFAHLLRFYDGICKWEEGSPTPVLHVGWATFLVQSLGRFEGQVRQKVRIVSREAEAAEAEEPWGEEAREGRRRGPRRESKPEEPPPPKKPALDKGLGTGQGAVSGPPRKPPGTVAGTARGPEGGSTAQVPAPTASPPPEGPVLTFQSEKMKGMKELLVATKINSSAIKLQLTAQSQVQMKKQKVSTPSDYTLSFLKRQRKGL
Briefly: AlphaLISA menin/MLL binding assay, mutated menin (Assay 1). Conditions: biotinylated mutated menin 5 nM, MLL-AF9-FLAG lysate, read-out: Assay 1 Mutant Menin IC50. On the procedure:
Potencies of inhibitor compounds against menin/MLL binding were assessed by AlphaLISA assay using biotinylated (1) wild-type menin or (2) mutated menin (described in Nature (2012) Vol. 482, pp. 542-548) and MLL-AF9 fusion protein bearing a FLAG epitope at its C-terminus. Menin proteins were expressed in E. coli and covalently modified with biotin using EZ-Link™ Sulfo-NHS-Biotin (ThermoFisher Cat. No. 21217) according to manufacturer's protocol. MLL1-1,396 fused to AF91-92 and the C-terminal FLAG peptide was expressed in HEK293 cells and used as a lysate cleared at 21,000×g for 10 min.
Compounds (2 μL of solutions in DMSO) were dispensed in white 96-well half-area plates (Corning Cat. No. 3693) and incubated for 30 min at RT with 5 nM biotinylated menin and appropriate amount of MLL-AF9-FLAG lysate in 40 μL of 50 mM Tris-HCl buffer pH 7.4 containing 5% (v/v) DMSO, 50 mM NaCl, 0.01% (w/v) bovine serum albumin (BSA) and 1 mM DTT. To this incubation mixture, 40 μl of AlphaLISA anti-FLAG acceptor (PerkinElmer Cat. No. AL112C) and streptavidin donor (PerkinElmer Cat. No. 6760002) beads (10 μg/mL each) was added and incubation continued at RT for 60 min. Alpha (amplified luminescent proximity homogeneous assay) signal was measured on an Envision multi-label plate reader at the end of the incubation. All steps were conducted under dim fluorescent light.
These percent inhibition values were regressed against compound concentrations in the assay using four parameter logit non-linear curve fitting (XLFit, IDBS). The IC50 values were derived from the curve fitting as inflection points on the dose-response curves and are set out in Table 1 below.
(In general: Alpha assays give light when donor and acceptor beads are brought close together.)

Assay [2] addresses T2, menin/MLL (Gal4-Menin and MLL1-46-VP16) in HEK293 cells (Homo sapiens, UniProt O00255).
T2 construct: expressed in transfected cells; host or cells: HEK293 (ATCC)
Briefly: Mammalian cellular two-hybrid assay in HEK293 cells (Assay 2, cell assay). It is filed as cell-based. As to conditions: Gal4-Menin/MLL1-46-VP16 two-hybrid, NanoLuc luciferase reporter, 16-18 h. An outline of the steps:
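HEK293 cells co-transfected with Gal4-Menin, MLL1-46-VP16 and a 4×UAS secreted NanoLuc reporter, then exposed to compound for 16-18 h at 37 °C in 10% delipidated FBS (0.1% DMSO). Inhibition from secreted NanoLuc relative to DMSO and 5 μM MI-2-2, with 4-parameter IC50 fit. CellTiter-Glo measured toxicity.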

T2 sequence (P04386 1-147 partner limits assumed, species assumed, one chain of several): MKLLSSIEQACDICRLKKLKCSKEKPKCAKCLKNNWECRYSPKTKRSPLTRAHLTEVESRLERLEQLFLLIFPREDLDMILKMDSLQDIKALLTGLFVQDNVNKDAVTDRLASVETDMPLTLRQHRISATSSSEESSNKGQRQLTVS

Regarding `CC1(C)CN=C(N2CC3(CCN(c4ncnc5sc(CC(F)(F)F)cc45)CC3)C2)S1` [Example 10, 4-(2-(5,5-dimethyl-4,5-dihydrothiazol-2-yl)-2,7-diazaspiro[3.5]nonan-7-yl)-6-(2,2,2-trifluoroethyl)thieno[2,3-d]pyrimidine], the IC50 (usually the midpoint of a concentration-inhibition curve) in assay [1] lay within 100 to 1000 nM.

`CC(C)N1CCC2(CCN(c3ncnc4sc(CC(F)(F)F)cc34)CC2)C1` [Example 25, 4-(2-isopropyl-2,8-diazaspiro[4.5]decan-8-yl)-6-(2,2,2-trifluoroethyl)thieno[2,3-d]pyrimidine]: the IC50 in assay [2] is at least 1000 nM; in assay [1], 100 to 1000 nM.

Turning to `CC1(C)CN=C(N2CCC3(CCN(c4ncnc5sc(CC(F)(F)F)cc45)CC3)C2)S1` [Example 27, 4-(2-(5,5-dimethyl-4,5-dihydrothiazol-2-yl)-2,8-diazaspiro[4.5]decan-8-yl)-6-(2,2,2-trifluoroethyl)thieno[2,3-d]pyrimidine], the IC50 in assay [1] is 100 to 1000 nM.

As to `CC1(C)CN=C(N2CC3(C2)CN(c2ncnc4ccc(OC(F)(F)F)cc24)C3)S1` [Example 88, 5,5-dimethyl-2-(6-(6-(trifluoromethoxy)quinazolin-4-yl)-2,6-diazaspiro[3.3]heptan-2-yl)-4,5-dihydrothiazole], the IC50 in assay [1] was at least 1000 nM.
